Consider one compound from US20030039672A1, “Cosmetic composition and method of treating skin” (Unilever Home & Personal Care USA, Division of Conopco, Inc., priority 2001, published 2003).

Each structure is given as a SMILES string.

Holding throughout (type): cell-based
Test [1] deals with procollagen-I synthesis in human dermal fibroblasts. Description: Dot blot assay for procollagen-I protein in dermal fibroblast conditioned medium. Particulars: for Procollagen Level: 24 hours, relative to vehicle treated control value of 100. The method, then: (§1) Primary human foreskin fibroblasts at passage 2 (P2) were seeded into 12-well plates at 10000 cells/cm^2 and maintained for 24 hours in an atmosphere of 5% carbon dioxide and 4% oxygen in Dulbeccos Modified Eagles Medium (DMEM) supplemented with 10% foetal calf serum. After this time the cells were washed with serum free DMEM and then incubated in fresh serum free DMEM for a further 60 hours. The fibroblast monolayers were then washed again with serum free DMEM. Test reagents and vehicle controls were added to the cells in triplicate in a final volume of 0.4 ml/well fresh serum free DMEM and incubated for a further 24 hours. This fibroblast conditioned medium was either analysed immediately or snap frozen in liquid nitrogen and stored at −70° C. for future analysis. The cells were then counted and data from the dot-blot analysis subsequently standardised to cell number.
(§2) Samples of conditioned medium from dermal fibroblasts treated with vehicle (as a control) or test reagents were supplemented with 20 mM dithiothreitol (1:10 dilution of 200 mM stock solution) and 0.1% sodium dodecylsulphate (1:100 dilution of 10% stock solution), mixed well and then incubated at 75° C. for 2 minutes. A standard for the assay was generated by serial dilution of neat fibroblast conditioned medium from fibroblasts seeded at 10000 cells/cm^2 in a 175 cm^2 flask and maintained in serum free DMEM as described above. […]
(§3) Following this the Immobilon strips were again washed with TBS/Tween 20 (3×5 minutes) before being allowed to dry in air at room temperature. […] Dot intensity was assessed by computer-assisted image analysis using the quantification tools in ImageQuant™, standardised to cell number and the effects of various test reagents on decorin and procollagen-I synthesis were determined relative to a vehicle treated control value of 100 arbitrary units.
(§4) In order to normalise the results the effects of the test substance was determined relative to a vehicle treated control value of 100 arbitrary units.

For test [2], the system named is decorin synthesis in human dermal fibroblasts. Description: Dot blot assay for decorin protein in dermal fibroblast conditioned medium. Particulars: for Decorin Level: 24 hours, relative to vehicle treated control value of 100. The method, then:
as §1, §2, §3, §4

Test [3] deals with Human foreskin keratinocytes. Description: Cornified envelope production in keratinocytes (silver-stained dot blot). Particulars: for Cornified Envelope % Control / Cornified Envelope Mean: 4 days of treatment. The method, then:
(§5) Human foreskin keratinocytes at passage 3 (P3) were seeded into 96 well plates at 4000 cells/well in Dubleccos Modified Eagles Medium (DMEM), 0.03 mM calcium. The cells were grown for 3 days prior to treatment. The treatment vehicle was DMSO. After 4 days of treatment, the cells were harvested and washed three times with 100 μl phosphate buffered saline (PBS). The cells were then extracted in 1% Triton X100, 50 mM Tris pH 8.0, 0.02 mM Leupeptin, 0.02 mM Pepstatin. 60 il/well of extract was then assayed for DNA concentration (ng/well), Pico Green DNA assay, Molecular Probes.
The cells were then washed in 200 μl PBS, and then 100 μl of 2% SDS, 20 mM DTT was added to each well. The plates were then sealed with a Titertek plate sealer (ICN) and incubated at 60° C. over night in an air tight damp environment (i.e. a sealed sandwich box lined with damp paper). The extract was then filtered through a PVDF transfer membrane (Bio-rad) under gravity using Dot-Blot apparatus (Bio-rad). The membrane is then washed in distilled water prior to silver staining (Bio-rad Silver Stain kit). The stained dot blot membrane is then analysed using Phoretix array software (Phoretix International).

For test [4], the system named is Human foreskin keratinocytes. Description: DNA concentration of keratinocyte extract (Pico Green DNA assay). Particulars: 4 days of treatment. The method, then:
as §5

Setting [5] is: human dermal fibroblasts, statement in words.

On to `CC/C=C\C/C=C\C/C=C\CCCCCC(=O)O` [Hexadecatrienoic acid, hexadecatrienoic acid (C16:3(c7, c10, c13))], for which the “Procollagen Level” value was found to be 91.0 arbitrary units in test [1] (1 μM) and 184.2 arbitrary units in test [1] (10 μM). The “synthesis of procollagen-I as compared to the control” value in test [1] (setting [5]) is on record as “significantly upregulates”. Moreover, the “Decorin Level” value in test [2] (1 μM) is listed as 108.7 arbitrary units; in test [2] (10 μM), 115.4 arbitrary units. Also, in test [2] (setting [5]), the “synthesis of decorin as compared to the control” value is “significantly upregulates”. Also, the “Cornified Envelope % Control” value came out at 98 % Control in test [3] (0.1 μM), 133 % Control in test [3] (0.5 μM), 200 % Control in test [3] (1 μM) and 227 % Control in test [3] (10 μM). In addition, the “Cornified Envelope Mean” value in test [3] (0.1 μM) came out at 17617; in test [3] (0.5 μM), 24009; in test [3] (1 μM) it was 36017; in test [3] (10 μM) it was 40997. For the same compound, the cornified envelope production entry in test [3] (1-10 μM application, statement in words) is reported as “increased”. The “DNA Results % Control” value in test [4] (0.1 μM) turned out to be 59 % Control; in test [4] (0.5 μM), 89 % Control; in test [4] (1 μM), 76 % Control; in test [4] (10 μM), 68 % Control. Also, the “DNA Results Mean” value in test [4] (0.1 μM) stood at 0.98 ng/well; in test [4] (0.5 μM), 1.48 ng/well; in test [4] (1 μM), 1.27 ng/well; in test [4] (10 μM) it was 1.13 ng/well.
